The structures appear in SMILES notation.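 Dose response: 5 concentrations. Exposure: 48 h. Format: 96-well plates. Endpoint: linear interpolation; highest concentration if not reached. TGI denotes the concentration required for complete inhibition of growth.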

Common to all, as to experiment: DTP human tumour cell line panel, 48 h
In assay [1] the test system is HL-60(TB) leukemia.
Assay [2] deals with NCI/ADR-RES ovarian.
For assay [3], the system named is NCI-H522 lung.
For assay [4], the system named is SF-539 CNS.
The test system of assay [5] is MCF7 breast.
In assay [6] the test system is SF-295 CNS.
The subject of assay [7] is U251 CNS.
Assay [8] has as its system HT29 colon.

For the molecule `Cc1ccc(NC(c2ccccc2)P(=O)(c2ccccc2)c2ccccc2)cc1` (centres undefined), the TGI in assay [1], in assay [2], in assay [3], in assay [4], in assay [5] and in assay [6] was > 100 µM each time. Also, the TGI in assay [7] and in assay [8] was > 100 µM each time.

`CCOC(=O)c1c(NS(=O)(=O)c2ccccc2)sc2c1CCCC2`: the TGI in assay [1], in assay [2], in assay [4], in assay [5], in assay [6] and in assay [8] was > 100 µM each time.

Consider `Clc1ccc(Cc2nc3cc(Cl)c(Cl)cc3n2CC2CCCN3CCCCC23)cc1` (centres undefined), for which the TGI in assay [1] was 25.4 µM; in assay [2], 27.3 µM; in assay [3] it was 24.6 µM; in assay [4], 22.3 µM; in assay [5], 28.3 µM; in assay [6] it was 29.2 µM. Moreover, the values for the TGI in assay [7] and in assay [8] were 20.8 µM and 13.1 µM, respectively.

For the molecule `COc1ccc2nc(-c3ccc(N)cc3)sc2c1`, the TGI in assay [1], in assay [2], in assay [3], in assay [4], in assay [5] and in assay [6] was > 100 µM in each case. Besides, the TGI in assay [7] and in assay [8] was > 100 µM each time.

Consider `Cc1ccc([N+](=O)[O-])cc1S(=O)(=O)Nc1ccc(C2=NN(S(=O)(=O)c3cc([N+](=O)[O-])ccc3C)C(c3ccccc3O)C2)cc1` (centres undefined), for which the TGI in assay [1], in assay [2], in assay [3], in assay [5], in assay [6] and in assay [7] was > 100 µM each time. In addition, the TGI in assay [8] was > 100 µM.

On to `Cc1ccc(-c2ccc3c(c2)Sc2ccccc2O3)n1C`, for which the TGI is 0.261 µM in assay [1]; 12.6 µM in assay [2]; 0.373 µM in assay [3]; 0.799 µM in assay [6]; > 100 µM in assay [7].

Consider `NC1CC(=O)c2c(I)sc(I)c21` (centres undefined), for which the TGI in assay [1] is 14.6 µM; in assay [2], > 61.7 µM; in assay [3], 24.3 µM; in assay [4], 44.8 µM; in assay [5], > 67.7 µM; in assay [6], 39.8 µM. Also, the TGI was 51.1 µM in assay [7] and 50.6 µM in assay [8].

Consider `CC(C)C(Sc1nc(N)nc2nc[nH]c12)C(=O)O` (centres undefined), for which the TGI in assay [1], in assay [2], in assay [3], in assay [5], in assay [6] and in assay [7] was > 100 µM each time. Moreover, the TGI in assay [8] is > 100 µM.

Consider `CC(NC(CC12CC3CC(CC(C3)C1)C2)C(N)=O)c1ccccc1` (centres undefined), for which the TGI was 28.4 µM in assay [1]; 48 µM in assay [2]; 47.5 µM in assay [3]; > 100 µM in assay [5]; 28.4 µM in assay [6]; 26.1 µM in assay [7]. This molecule yielded a TGI in assay [8] of 48.1 µM.

On to `CCCNC(=O)c1cc(OC)c(OC)cc1NC(=O)C12CC3CC(CC(C3)C1)C2`, for which the TGI was > 100 µM in assay [1]; 48.3 µM in assay [2]; 30 µM in assay [3]; 46.9 µM in assay [4]; 64.2 µM in assay [5]; 35.9 µM in assay [6]. The TGI in assay [7] worked out at 30.7 µM; in assay [8], 32.2 µM.

Consider `CC(C)=CC(=O)c1[nH]c2ccccc2c1CC(=O)NCCc1cnc[nH]1`, for which the TGI in assay [1], in assay [2], in assay [3], in assay [4], in assay [5] and in assay [6] was > 100 µM throughout. For the same molecule, the TGI in assay [7] and in assay [8] was > 100 µM each time.

Turning to `CCOC(=O)c1c(N2CCN(C)CC2)[nH]c(=O)c(C(c2c(Cl)cccc2Cl)c2c(O)c(C(=O)OCC)c(N3CCN(C)CC3)[nH]c2=O)c1O`, the TGI in assay [1] was 58.2 µM; in assay [2], > 100 µM; in assay [3], 42 µM; in assay [4], 39.5 µM; in assay [5], > 100 µM; in assay [6], 63.3 µM. Moreover, the values for the TGI in assay [7] and in assay [8] were 50 µM and 39.1 µM, respectively.

With `CC[C@@]1(O)C(=O)OCc2c1cc1n(c2=O)Cc2c-1nc1ccc(N)cc1c2CC[Si](C)(C)C`, the total growth inhibition concentration (TGI) in assay [1] was < 0.01 µM; in assay [2] it was 2.02 µM; in assay [3], 0.127 µM; in assay [4], < 0.01 µM; in assay [5] it was 0.39 µM; in assay [6] it was < 0.0417 µM. For the same molecule, the TGI in assay [7] came out at 0.543 µM; in assay [8], 11.6 µM.

Consider `CN(C)CCCn1c(-c2ccc(Br)cc2)csc1=Nc1ccccc1`, for which the TGI in assay [1] is > 100 µM; in assay [2], 35.7 µM; in assay [4], 34 µM; in assay [5] it was 54 µM; in assay [6], 25.4 µM; in assay [7], > 100 µM.

`CCc1nnc2sc(-c3ccc(-c4ccccc4[N+](=O)[O-])o3)nn12`: the TGI in assay [1] was 99.2 µM; in assay [2], 75.1 µM; in assay [3], > 100 µM; in assay [4], 89 µM; in assay [5], > 100 µM; in assay [6] it was > 100 µM. Also, the TGI in assay [7] and in assay [8] was > 100 µM each time.

Turning to `O=C(O)c1ccccc1Sc1ccc(C=C2NC(=S)N(c3ccccc3)C2=O)s1`, the TGI in assay [1] was 82.1 µM; in assay [2], > 100 µM; in assay [3], 38.9 µM; in assay [5] it was > 100 µM; in assay [6], > 100 µM; in assay [7], > 100 µM. The TGI in assay [8] is > 100 µM.

Consider `COc1ccc2cc(CNCCCCCCNC(=O)Nc3cccc4ccccc34)ccc2c1`, for which the TGI in assay [1], in assay [3], in assay [4], in assay [5], in assay [6] and in assay [7] was > 100 µM each time. Also, in assay [8], the TGI was > 100 µM.

A word on the TGI: it is the concentration at which net growth stops. Low values mean greater sensitivity of the cells, high ones lower sensitivity of the cells.

Values taken from PubChem BioAssay (NCI).
